# Results taken from patent US11168283B2, “Malodor counteracting ingredients” (Firmenich SA, priority 2017, dated 2021).
# Biological target: T1, butyric acid olfactory receptor OR51E1 (Homo sapiens, UniProt Q8TCB6)
# T1 construct: expressed in transfected cells
# T1 sequence (Q8TCB6 1-318): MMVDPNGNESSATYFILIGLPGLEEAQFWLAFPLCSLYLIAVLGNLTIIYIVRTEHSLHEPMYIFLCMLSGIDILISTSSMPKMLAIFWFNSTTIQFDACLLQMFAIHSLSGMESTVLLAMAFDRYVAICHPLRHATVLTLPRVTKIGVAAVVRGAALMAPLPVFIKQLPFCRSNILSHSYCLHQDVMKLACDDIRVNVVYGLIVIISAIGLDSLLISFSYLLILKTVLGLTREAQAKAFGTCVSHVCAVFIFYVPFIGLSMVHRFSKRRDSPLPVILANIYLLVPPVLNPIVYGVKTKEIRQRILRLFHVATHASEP
# Experiment: Inhibitory dose-response assay in a cell line expressing the OR51E1 olfactory receptor, in the presence of butyric acid (EC87)
# Type: cell-based
# Conditions: maximum % inhibition of butyric acid (EC87) induced OR51E1 activity, normalized to baseline agonist activity
row,Inhibition (%),Compound
1,19,"CC(=NO)C1C(C)C(C)[C@@]23CC[C@H](CC12)C3 (some centres unmarked) [~{N}-[1[(1~{S},7~{R})-2,3-dimethyl-4-tricyclo[5.2.1.0^1,5]decanyl]ethylidene]hydroxylamine]"
2,38,"CC1CC(C)(C=NO)C2C[C@H]3CC[C@]12C3 (some centres unmarked) [~{N}-[[(1~{S},7~{R})-2,4-dimethyl-4-tricyclo[5.2.1.0^1,5]decanyl]methylidene]hydroxylamine]"
